This is an account of results in patent US12365655B2, “Compounds” (CTXT PTY LTD, priority 2018, dated 2025).

Structures can show the parent of a compound that is named as a salt.

The target in assay [1] is TIP60-KAT5 (Homo sapiens, UniProt Q92993). Kind of assay: Acetyltransferase biochemical assay (AlphaScreen), KAT5. (In Alpha technology, singlet oxygen from a donor bead excites a nearby acceptor bead.)
In assay [2] the target is HBO-KAT7 (Homo sapiens, UniProt O95251). As to the kind of experiment: Acetyltransferase biochemical assay (AlphaScreen), KAT7.
HBO-KAT7, sequence (O95251 with tags, fused parts or gaps): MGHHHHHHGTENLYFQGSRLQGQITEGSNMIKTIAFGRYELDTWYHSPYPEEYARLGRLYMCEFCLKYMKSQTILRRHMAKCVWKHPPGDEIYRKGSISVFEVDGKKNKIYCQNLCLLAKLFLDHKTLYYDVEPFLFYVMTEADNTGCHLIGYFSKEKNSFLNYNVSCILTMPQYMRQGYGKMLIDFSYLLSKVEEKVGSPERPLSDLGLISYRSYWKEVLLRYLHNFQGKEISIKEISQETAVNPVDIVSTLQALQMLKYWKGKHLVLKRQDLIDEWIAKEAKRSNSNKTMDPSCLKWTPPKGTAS
Assay [3] addresses MOZ-KAT6A (Homo sapiens, UniProt Q92794, A567V). Kind of assay: Acetyltransferase biochemical assay (AlphaScreen), KAT6A.

TIP60-KAT5, sequence (Q92993 with tags, fused parts or gaps isoform Q92993-2): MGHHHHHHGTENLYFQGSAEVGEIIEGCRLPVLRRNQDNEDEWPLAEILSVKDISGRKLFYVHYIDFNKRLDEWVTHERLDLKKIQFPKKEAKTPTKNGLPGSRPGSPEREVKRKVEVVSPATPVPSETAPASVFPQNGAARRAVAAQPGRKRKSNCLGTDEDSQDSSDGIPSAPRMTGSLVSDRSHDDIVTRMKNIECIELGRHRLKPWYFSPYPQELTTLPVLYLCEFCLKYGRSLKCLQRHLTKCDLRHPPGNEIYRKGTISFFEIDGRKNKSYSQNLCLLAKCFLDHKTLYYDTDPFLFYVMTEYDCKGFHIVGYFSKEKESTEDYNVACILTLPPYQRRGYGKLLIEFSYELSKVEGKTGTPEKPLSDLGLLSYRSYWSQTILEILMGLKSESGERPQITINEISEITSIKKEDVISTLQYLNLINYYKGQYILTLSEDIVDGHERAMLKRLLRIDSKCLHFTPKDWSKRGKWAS
MOZ-KAT6A, sequence (Q92794 with tags, fused parts or gaps A567V): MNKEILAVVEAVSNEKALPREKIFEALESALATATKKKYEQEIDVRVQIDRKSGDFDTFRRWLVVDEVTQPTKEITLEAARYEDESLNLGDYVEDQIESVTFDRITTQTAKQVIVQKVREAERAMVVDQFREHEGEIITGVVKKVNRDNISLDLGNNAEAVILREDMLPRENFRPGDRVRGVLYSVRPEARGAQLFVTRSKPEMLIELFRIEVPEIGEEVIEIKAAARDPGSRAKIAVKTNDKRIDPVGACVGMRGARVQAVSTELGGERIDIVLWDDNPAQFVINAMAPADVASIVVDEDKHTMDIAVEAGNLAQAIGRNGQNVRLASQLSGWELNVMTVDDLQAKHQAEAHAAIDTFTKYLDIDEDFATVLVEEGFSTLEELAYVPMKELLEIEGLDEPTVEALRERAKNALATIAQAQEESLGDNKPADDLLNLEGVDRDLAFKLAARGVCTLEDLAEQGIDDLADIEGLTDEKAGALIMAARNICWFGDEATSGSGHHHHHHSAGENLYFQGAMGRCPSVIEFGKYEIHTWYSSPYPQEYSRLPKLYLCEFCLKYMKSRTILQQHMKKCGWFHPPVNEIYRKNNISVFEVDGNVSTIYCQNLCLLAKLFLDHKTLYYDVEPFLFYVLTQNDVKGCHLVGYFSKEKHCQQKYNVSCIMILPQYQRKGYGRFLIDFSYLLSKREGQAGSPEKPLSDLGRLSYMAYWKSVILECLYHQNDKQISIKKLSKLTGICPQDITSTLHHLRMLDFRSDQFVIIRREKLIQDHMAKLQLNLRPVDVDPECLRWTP

For `CCOc1ccc(CC)cc1S(=O)(=O)Nc1noc2ccccc12` [Example 57, N-(benzo[d]isoxazol-3-yl)-2-ethoxy-5-ethylbenzene sulfonamide], the concentration for half-maximal inhibition (IC50) (commonly the concentration at which inhibition is half-maximal) in assay [1] is over 125 µM; in assay [2] it was over 125 µM; in assay [3], 56.2 µM.
Turning to `CCc1ccc(OC)c(S(=O)(=O)Nc2noc3ccc(CC)c(Cl)c23)c1` [Example 206], the IC50 in assay [1] is 6.36 µM; in assay [2], 0.626 µM; in assay [3], 0.302 µM.
The matching figures for `CC(C)(C)c1ccc(S(=O)(=O)Nc2noc3cccc(Cl)c23)cc1` [Example 25, 4-(tert-butyl)-N-(4-chlorobenzo[d]isoxazol-3-yl)benzenesulfonamide]: 120 µM, 41.9 µM and 33.2 µM.
In the same order, the values of `CCc1ccc(OC)c(S(=O)(=O)Nc2noc3ccc(CC)cc23)c1` [Example 235] are 9.04 µM, 0.82 µM and 0.395 µM.
In the same order, the values of `CCc1ccc(OC)c(S(=O)(=O)Nc2noc3c(OCC4CC4)cccc23)c1` [Example 133] are 45.7 µM, 5.34 µM and 4.45 µM.
On to `COc1ccc(-n2cccn2)cc1S(=O)(=O)Nc1noc2ccccc12` [Example 54, N-(benzo[d]isoxazol-3-yl)-2-methoxy-5-(1H-pyrazol-1-yl)benzene sulfonamide], for which the values for the 50% inhibitory concentration (IC50) in assay [1], in assay [2] and in assay [3] were over 125 µM, over 125 µM and 63 µM, respectively.
For `O=S(=O)(Nc1noc2ccccc12)c1cccc(Cl)c1Cl` [Example 60, N-(benzo[d]isoxazol-3-yl)-2,3-dichlorobenzene-sulfonamide], the figures for the IC50 in assay [1], in assay [2] and in assay [3] were over 125 µM, over 125 µM and 116 µM, respectively.
For the molecule `CCc1ccc(OC)c(S(=O)(=O)Nc2noc3ccc(Cn4cccn4)cc23)c1` [Example 225], the half-maximal inhibitory concentration (IC50) in assay [1] is over 125 µM; in assay [2] it was 31.1 µM; in assay [3] it was 3.62 µM.
In the same order, the values of `CCc1ccc(OC)c(S(=O)(=O)Nc2noc3cccc(C4CCCCC4)c23)c1` [Example 201] are 21.8 µM, 0.773 µM and 1.48 µM.
In the same order, the values of `COc1cccc(OC)c1S(=O)(=O)Nc1noc2cc(-n3nc(C)cc3C)ccc12` [Example 105] are over 125 µM, 63.2 µM and 2.9 µM.
With `COc1ccc(Br)cc1S(=O)(=O)Nc1noc2cccc(Cl)c12` [Example 45], the half-inhibitory concentration (IC50) in assay [1] turned out to be 34.3 µM; in assay [2], 6.83 µM; in assay [3], 2.08 µM.
Take `CCc1ccc(OC)c(S(=O)(=O)Nc2noc3cc(-c4ncccn4)ccc23)c1` [Example 126, 5-Ethyl-2-methoxy-N-(6-(pyrimidin-2-yl)benzo[d]isoxazol-3-yl)benzenesulfonamide]: the IC50 in assay [1] turned out to be 51.3 µM; in assay [2], 28.9 µM; in assay [3], 10.5 µM.
The matching figures for `CCc1ccc(OC)c(S(=O)(=O)Nc2noc3cc(-n4ccnn4)ccc23)c1` [Example 125]: over 125 µM, 85.8 µM and 24.5 µM.
Consider `O=S(=O)(Nc1noc2ccccc12)c1ccc(Br)cn1` [Example 68, N-(benzo[d]isoxazol- -3-yl)-5-bromopyridine-2-sulfonamide], for which the IC50 in assay [1] is over 125 µM; in assay [2], over 125 µM; in assay [3] it was 85.1 µM.
Regarding `CCc1ccc(OC)c(S(=O)(=O)Nc2noc3cc(C4CC4)ccc23)c1` [Example 195], the concentration for half-maximal inhibition (IC50) in assay [1] came out at 16.7 µM; in assay [2] it was 4.96 µM; in assay [3], 1.32 µM.
The matching figures for `CCc1ccc(OC)c(S(=O)(=O)Nc2noc3ccc(C4CC4)c(OC)c23)c1` [Example 208]: 28.5 µM, 4.65 µM and 1.63 µM.
The matching figures for `CCOc1ccc2c(NS(=O)(=O)c3cc(CC)ccc3OC)noc2c1` [Example 139]: 34.3 µM, 10 µM and 2.14 µM.
The matching figures for `COc1ccc(S(=O)(=O)Nc2noc3cccc(OC)c23)c(OC)c1` [Example 76, 2,4-dimethoxy-N-(4-methoxybenzo [d]isoxazol-3-yl)benzene sulfonamide]: 2.58 µM, 0.937 µM and 0.688 µM.
`CCc1ccc(OC)c(S(=O)(=O)Nc2noc3c(F)cccc23)c1` [Example 152]: the figures for the half-maximal inhibitory concentration (IC50) in assay [1], in assay [2] and in assay [3] were 38.9 µM, 9.87 µM and 6.28 µM, respectively.
In the same order, the values of `COc1ccc(C(C)(C)C)cc1S(=O)(=O)Nc1noc2cccc(Cl)c12` [Example 40, 5-(tert-butyl)-N-(4-chlorobenzo[d]isoxazol-3-yl)-2-methoxy benzenesulfonamide] are 121 µM, 19.9 µM and 2.13 µM.
In the case of `CCc1ccc(OC)c(S(=O)(=O)Nc2noc3c(C4CCCCC4)cccc23)c1` [Example 190], the IC50 in assay [1] is 19.9 µM; in assay [2], 18.5 µM; in assay [3] it was 9.73 µM.
The matching figures for `O=S(=O)(Nc1noc2ccccc12)c1ccc2c(c1)CCC2` [Example 64, N-(benzo[d]isoxazol-3-yl)-2,3-dihydro-1H-indene-5-sulfonamide]: over 125 µM, 106 µM and 26.7 µM.
On to `CCc1ccc(OC)c(S(=O)(=O)Nc2noc3cc(-c4cnn(C)c4)ccc23)c1` [Example 196, 5-Ethyl-2-methoxy-N-(6-(1-methyl-1H-pyrazol-4-yl)benzo[d]isoxazol-3-yl)benzenesulfonamide], for which the results for the IC50 in assay [1], in assay [2] and in assay [3] were 95.4 µM, 23.3 µM and 13.9 µM, respectively.
Take `Cn1nc2cccc(S(=O)(=O)Nc3noc4cccc(Cl)c34)c2n1` [Example 6, N-(4-chlorobenzo [d]isoxazol-3-yl)-2-methyl-2H-benzo[d][1,2,3]triazole-4-sulfonamide]: the IC50 in assay [1] was 94.9 µM; in assay [2], 6.28 µM; in assay [3] it was 30.2 µM.
Turning to `Cc1nnc(-c2cccc(S(=O)(=O)Nc3noc4ccccc34)c2)o1` [Example 67, N-(benzo[d]isoxazol-3-yl)-3-(5-methyl-1,3,4-oxadiazol-2-yl)benzene sulfonamide], the IC50 in assay [1] is 115 µM; in assay [2], over 125 µM; in assay [3] it was 22.7 µM.
For the molecule `CCc1ccc(OC)c(S(=O)(=O)Nc2noc3ccc(Br)c(OC)c23)c1` [Example 108, N-(5-bromo-4-methoxybenzo[d]isoxazol-3-yl)-5-ethyl-2-methoxy benzenesulfonamide], the results for the IC50 in assay [1], in assay [2] and in assay [3] were 41.9 µM, 2.04 µM and 3.09 µM, respectively.
In the same order, the values of `COc1cc(CN)cc(OC)c1S(=O)(=O)Nc1noc2cccc(OC)c12` [Example 210, 4-(Aminomethyl)-2,6-dimethoxy-N-(4-methoxybenzo[d]isoxazol-3-yl)benzenesulfonamide hydrochloride] are over 125 µM, 6.54 µM and 8.53 µM.
As for `COc1ccc(S(=O)(=O)Nc2noc3cc(CO)ccc23)c(OC)c1` [Example 167], the IC50 in assay [1] turned out to be 32.2 µM; in assay [2] it was 6.85 µM; in assay [3], 8.67 µM.
Consider `O=S(=O)(Nc1noc2ccccc12)c1ccc2c(c1)CCCC2` [Example 65, N-(benzo[d]isoxazol-3-yl)-5,6,7,8-tetrahydro-naphthalene-2-sulfonamide], for which the IC50 in assay [1] is over 125 µM; in assay [2], 59.7 µM; in assay [3] it was 27.9 µM.
In the case of `O=S(=O)(Nc1noc2cccc(Cl)c12)c1cc(Br)cc2c1OCC2` [Example 127, 5-bromo-N-(4-chlorobenzo[d]isoxazol-3-yl)-2,3-dihydrobenzofuran-7-sulfonamide], the 50% inhibitory concentration (IC50) came out at 49.7 µM in assay [1], 9.49 µM in assay [2] and 9.16 µM in assay [3].
The matching figures for `COc1cc(C)cc(-c2cc(OC)c3c(NS(=O)(=O)c4c(OC)cccc4OC)noc3c2)c1` [Example 248, 2,6-Dimethoxy-N-(4-methoxy-6-(3-methoxy-5-methylphenyl)benzo[d]isoxazol-3-yl)benzenesulfonamide]: 9.33 µM, 0.375 µM and 0.139 µM.
In the same order, the values of `COc1cccc(OC)c1S(=O)(=O)Nc1noc2cc(-c3cccc(C#N)c3)cc(OC)c12` [Example 243] are 18.1 µM, 0.72 µM and 0.654 µM.
The matching figures for `O=S(=O)(Nc1noc2cccc(Cl)c12)c1cccc(S(F)(F)(F)(F)F)c1` [Example 36, N-(4-chlorobenzo [d]isoxazol-3-yl)-3-(pentafluoro-λ^6-sulfanyl)benzene sulfonamide]: 39 µM, 26.3 µM and 17.7 µM.
With `CCc1ccc(OC)c(S(=O)(=O)Nc2noc3cc(-n4nccn4)ccc23)c1` [Example 130], the values for the 50% inhibitory concentration (IC50) in assay [1], in assay [2] and in assay [3] were over 125 µM, 21.7 µM and 2.96 µM, respectively.
Turning to `O=S(=O)(Nc1noc2cccc(Cl)c12)c1ccc(S(F)(F)(F)(F)F)cc1` [Example 35, N-(4-chlorobenzo [d]isoxazol-3-yl)-4-(pentafluoro-λ^6-sulfanyl)benzene sulfonamide], the half-maximal inhibitory concentration (IC50) in assay [1] worked out at 33.8 µM; in assay [2], 8.75 µM; in assay [3], 4.63 µM.
The matching figures for `CCc1cc2c(c(S(=O)(=O)Nc3noc4cccc(Cl)c34)c1)OCC2` [Example 181, N-(4-Chlorobenzo[d]isoxazol-3-yl)-5-ethyl-2,3-dihydrobenzofuran-7-sulfonamide]: 23.8 µM, 5.14 µM and 1.06 µM.
In the same order, the values of `COc1cc(OC)c(S(=O)(=O)Nc2noc3cccc(OC)c23)c(OC)c1` [Example 85, 2,4,6-trimethoxy-N-(4-methoxybenzo[d]isoxazol-3-yl)benzene sulfonamide] are 28.5 µM, 1.77 µM and 3.87 µM.
